What was measured:
[1] = molecular target: Sodium-dependent noradrenaline transporter (Homo sapiens, UniProt P23975); experiment: Inhibition of [3H]nisoxetine reuptake at human NET expressed in HEK293 cells by SPA; format: cell-based
[2] = molecular target: T1, Sodium-dependent dopamine transporter (Homo sapiens, UniProt Q01959); experiment: Inhibition of [3H]dopamine reuptake at human DAT expressed in HEK293 cells by SPA; format: cell-based
[3] = molecular target: T2, Sodium-dependent serotonin transporter (Homo sapiens, UniProt P31645); experiment: Inhibition of [3H]citalopram uptake at human 5HTT expressed in HEK293 cells by SPA; format: cell-based
T2 sequence (P31645 whole entry): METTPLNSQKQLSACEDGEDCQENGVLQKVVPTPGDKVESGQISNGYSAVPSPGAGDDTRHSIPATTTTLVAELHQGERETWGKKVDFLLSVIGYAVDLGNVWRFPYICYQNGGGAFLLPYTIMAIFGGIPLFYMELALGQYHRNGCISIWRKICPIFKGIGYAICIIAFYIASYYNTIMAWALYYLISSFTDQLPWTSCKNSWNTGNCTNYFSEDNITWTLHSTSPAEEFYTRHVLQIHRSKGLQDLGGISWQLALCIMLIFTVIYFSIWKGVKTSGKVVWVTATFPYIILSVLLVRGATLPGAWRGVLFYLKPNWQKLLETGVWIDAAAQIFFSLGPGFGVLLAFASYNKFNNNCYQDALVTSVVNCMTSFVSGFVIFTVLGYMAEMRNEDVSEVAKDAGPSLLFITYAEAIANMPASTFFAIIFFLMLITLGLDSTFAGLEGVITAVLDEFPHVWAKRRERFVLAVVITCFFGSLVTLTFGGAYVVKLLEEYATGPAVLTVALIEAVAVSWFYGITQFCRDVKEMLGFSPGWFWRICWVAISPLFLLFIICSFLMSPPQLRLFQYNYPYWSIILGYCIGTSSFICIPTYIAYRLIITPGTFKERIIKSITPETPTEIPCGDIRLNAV

[4] = Metabolic stability in human liver microsomes assessed as intrinsic clearance; format: ADME, Microsome
Cytochrome P450 2D6 = Cytochrome P450 2D6 (Homo sapiens, UniProt P10635); experiment: Inhibition of CYP2D6; format: ADME
Cytochrome P450 2D6, sequence (P10635 whole entry): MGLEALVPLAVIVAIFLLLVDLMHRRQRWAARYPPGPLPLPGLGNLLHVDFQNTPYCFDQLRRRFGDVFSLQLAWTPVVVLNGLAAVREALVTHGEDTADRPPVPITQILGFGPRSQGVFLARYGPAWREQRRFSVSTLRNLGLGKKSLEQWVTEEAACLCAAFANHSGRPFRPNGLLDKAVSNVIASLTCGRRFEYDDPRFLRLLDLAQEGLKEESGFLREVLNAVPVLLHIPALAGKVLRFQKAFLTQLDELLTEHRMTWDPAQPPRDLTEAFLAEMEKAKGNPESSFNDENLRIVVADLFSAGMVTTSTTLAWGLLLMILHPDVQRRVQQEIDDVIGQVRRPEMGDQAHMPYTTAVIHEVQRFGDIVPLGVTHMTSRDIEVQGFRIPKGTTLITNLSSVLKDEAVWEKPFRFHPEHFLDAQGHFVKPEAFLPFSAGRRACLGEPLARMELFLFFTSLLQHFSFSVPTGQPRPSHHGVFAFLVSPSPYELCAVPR

[5] = molecular target: T3, Muscarinic acetylcholine receptor M3 (Homo sapiens, UniProt P20309); experiment: Inhibition of muscarinic M3 receptor
Cytochrome P450 3A4 = Cytochrome P450 3A4 (Homo sapiens, UniProt P08684); experiment: Inhibition of CYP3A4; format: ADME
Cytochrome P450 3A4, sequence (P08684 whole entry): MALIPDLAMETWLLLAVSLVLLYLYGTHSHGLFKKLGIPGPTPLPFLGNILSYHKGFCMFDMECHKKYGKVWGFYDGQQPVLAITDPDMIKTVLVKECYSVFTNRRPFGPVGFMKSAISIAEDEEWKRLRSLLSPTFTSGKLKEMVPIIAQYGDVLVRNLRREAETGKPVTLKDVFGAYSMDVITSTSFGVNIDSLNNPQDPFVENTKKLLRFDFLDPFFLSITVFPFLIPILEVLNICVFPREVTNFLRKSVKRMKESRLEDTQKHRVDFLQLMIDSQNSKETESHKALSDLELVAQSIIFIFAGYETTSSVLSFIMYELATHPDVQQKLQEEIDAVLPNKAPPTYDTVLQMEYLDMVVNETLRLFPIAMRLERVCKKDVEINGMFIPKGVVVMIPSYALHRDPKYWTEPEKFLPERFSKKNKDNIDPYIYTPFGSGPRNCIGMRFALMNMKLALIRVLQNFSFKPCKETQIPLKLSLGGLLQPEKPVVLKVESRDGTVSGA

[6] = Inhibition of L type calcium channel
[7] = Inhibition of sodium channel site 2
[8] = molecular target: T4, 5-hydroxytryptamine receptor 2A (Homo sapiens, UniProt P28223); experiment: Inhibition of 5HT2A receptor at 10 uM
T4 sequence (P28223 whole entry): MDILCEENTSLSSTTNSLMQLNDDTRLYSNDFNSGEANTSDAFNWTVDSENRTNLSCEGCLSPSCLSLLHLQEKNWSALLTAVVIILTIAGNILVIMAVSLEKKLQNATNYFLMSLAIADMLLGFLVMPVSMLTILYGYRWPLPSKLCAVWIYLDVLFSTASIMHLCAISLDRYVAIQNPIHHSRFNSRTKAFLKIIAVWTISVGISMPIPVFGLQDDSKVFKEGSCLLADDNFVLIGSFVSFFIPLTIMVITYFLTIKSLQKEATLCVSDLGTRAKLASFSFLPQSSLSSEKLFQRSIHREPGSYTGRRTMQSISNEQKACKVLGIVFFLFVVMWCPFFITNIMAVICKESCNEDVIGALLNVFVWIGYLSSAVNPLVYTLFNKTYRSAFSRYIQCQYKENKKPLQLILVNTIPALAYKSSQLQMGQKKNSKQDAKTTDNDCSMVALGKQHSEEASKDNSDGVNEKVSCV

[9] = Apparent permeability from apical to basolateral side of the human Caco-2 membrane; format: ADME, cell-based
[10] = Distribution coefficient, log D at pH 7.4; format: physicochemical; conditions: octanol/water
[11] = Apparent permeability from basolateral to apical side of the human Caco-2 membrane; format: ADME, cell-based
[12] = Dissociation constant, pKa of the compound; format: physicochemical
[13] = molecular target: T3, Muscarinic acetylcholine receptor M3; experiment: Inhibition of muscarinic M3 receptor at 10 uM
Cytochrome P450 2C9 = Cytochrome P450 2C9 (Homo sapiens, UniProt P11712); experiment: Inhibition of CYP2C9; format: ADME
Cytochrome P450 2C9, sequence (P11712 whole entry): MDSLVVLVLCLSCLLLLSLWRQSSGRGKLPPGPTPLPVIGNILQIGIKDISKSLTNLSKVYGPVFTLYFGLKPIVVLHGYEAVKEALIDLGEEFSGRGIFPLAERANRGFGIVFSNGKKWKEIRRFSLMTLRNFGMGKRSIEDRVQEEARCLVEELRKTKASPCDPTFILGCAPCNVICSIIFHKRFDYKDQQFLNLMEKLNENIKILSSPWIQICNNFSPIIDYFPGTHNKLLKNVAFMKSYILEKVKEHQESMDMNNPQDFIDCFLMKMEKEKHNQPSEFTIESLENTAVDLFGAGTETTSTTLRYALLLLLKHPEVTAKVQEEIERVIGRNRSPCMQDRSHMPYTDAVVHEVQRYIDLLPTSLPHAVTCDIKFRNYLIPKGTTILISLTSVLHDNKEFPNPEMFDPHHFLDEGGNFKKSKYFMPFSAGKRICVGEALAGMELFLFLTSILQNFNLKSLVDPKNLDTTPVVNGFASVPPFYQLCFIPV

[14] = molecular target: 5-hydroxytryptamine receptor 2C (Homo sapiens, UniProt P28335); experiment: Activity at 5HT2C receptor
[15] = Apparent permeability from apical to basolateral side of the MDCK cells expressing MDR1 gene; format: ADME, cell-based, Canis lupus familiaris; conditions: dog
Hepatocyte = experiment: Metabolic stability in human hepatocytes assessed as intrinsic clearance; format: ADME, cell-based, Liver
[16] = molecular target: T5, 5-hydroxytryptamine receptor 2B (Homo sapiens, UniProt P41595); experiment: Activity at 5HT2B receptor
T5 sequence (P41595 whole entry): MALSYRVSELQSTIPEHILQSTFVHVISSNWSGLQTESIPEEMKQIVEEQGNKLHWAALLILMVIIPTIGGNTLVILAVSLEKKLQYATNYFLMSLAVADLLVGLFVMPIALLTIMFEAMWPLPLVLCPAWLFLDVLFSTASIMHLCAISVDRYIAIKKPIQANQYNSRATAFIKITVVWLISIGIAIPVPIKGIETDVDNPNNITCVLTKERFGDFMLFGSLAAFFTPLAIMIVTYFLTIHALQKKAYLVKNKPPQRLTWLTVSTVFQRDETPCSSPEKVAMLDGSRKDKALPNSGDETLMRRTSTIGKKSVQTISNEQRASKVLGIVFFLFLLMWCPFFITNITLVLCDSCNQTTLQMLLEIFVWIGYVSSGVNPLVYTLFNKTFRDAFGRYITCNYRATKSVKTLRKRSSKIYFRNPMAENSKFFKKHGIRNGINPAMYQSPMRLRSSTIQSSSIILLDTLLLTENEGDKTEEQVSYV

Cytochrome P450 1A2 = molecular target: T6, Cytochrome P450 1A2 (Homo sapiens, UniProt P05177); experiment: Inhibition of CYP1A2; format: ADME
T6 sequence (P05177 whole entry): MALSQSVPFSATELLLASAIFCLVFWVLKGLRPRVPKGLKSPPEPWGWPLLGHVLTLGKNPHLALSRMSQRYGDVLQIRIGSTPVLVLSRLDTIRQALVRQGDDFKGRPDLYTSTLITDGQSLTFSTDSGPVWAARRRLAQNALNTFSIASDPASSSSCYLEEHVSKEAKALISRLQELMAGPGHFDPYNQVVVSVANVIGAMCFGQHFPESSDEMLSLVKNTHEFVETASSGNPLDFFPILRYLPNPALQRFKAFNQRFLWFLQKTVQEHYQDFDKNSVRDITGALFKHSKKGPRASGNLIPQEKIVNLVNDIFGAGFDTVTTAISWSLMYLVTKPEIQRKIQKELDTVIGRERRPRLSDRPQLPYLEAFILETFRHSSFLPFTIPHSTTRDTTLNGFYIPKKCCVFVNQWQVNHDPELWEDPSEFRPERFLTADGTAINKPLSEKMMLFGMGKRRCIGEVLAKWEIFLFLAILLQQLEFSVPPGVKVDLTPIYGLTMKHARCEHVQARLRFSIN

Rattus norvegicus = experiment: Increase in noradrenaline level in interstitial fluid of sc dosed conscious rat prefrontal cortex relative to baseline; format: functional
[17] = molecular target: T4, 5-hydroxytryptamine receptor 2A; experiment: Activity at 5HT2A receptor
[18] = molecular target: T5, 5-hydroxytryptamine receptor 2B; experiment: Inhibition of 5HT2B receptor at 10 uM
[19] = molecular target: 5-hydroxytryptamine receptor 2C (Homo sapiens) (UniProt P28335); experiment: Inhibition of 5HT2C receptor at 10 uM
[20] = Inhibition of [3H]NA uptake at rat NET expressed in HEK293 cells; format: cell-based
[21] = Apparent permeability from basolateral to apical side of the MDCK cells expressing MDR1 gene; format: ADME, cell-based, Canis lupus familiaris; conditions: dog
[22] = Ratio of permeability from basolateral to apical side over apical to basolateral side of MDCK cells expressing MDR1 gene; conditions: dog
[23] = molecular target: Voltage-gated inwardly rectifying potassium channel KCNH2 (Homo sapiens, UniProt Q12809); experiment: Displacement of [3H]dofetilide from human ERG channel
CYP2D6 = CYP2D6 (Homo sapiens, UniProt P10635); experiment: Inhibition of CYP2D6 at 3 uM; format: ADME
CYP2D6, sequence (P10635 whole entry): as the sequence (P10635 whole entry) above

CYP2C9 = CYP2C9 (Homo sapiens, UniProt P11712); experiment: Inhibition of CYP2C9 at 3 uM; format: ADME
CYP2C9, sequence (P11712 whole entry): as the sequence (P11712 whole entry) above

Liver microsomes = experiment: Metabolic stability in human liver microsomes; format: ADME, Microsome
CYP1A2 = CYP1A2 (Homo sapiens, UniProt P05177); experiment: Inhibition of CYP1A2 at 3 uM; format: ADME
[24] = molecular target: T2, Sodium-dependent serotonin transporter
Description: Inhibition of [3H]5HT uptake at human SERT expressed in HEK293 cells

CYP3A4 = CYP3A4 (Homo sapiens, UniProt P08684); experiment: Inhibition of CYP3A4 at 3 uM; format: ADME
CYP3A4, sequence (P08684 whole entry): as the sequence (P08684 whole entry) above

[25] = molecular target: T1, Sodium-dependent dopamine transporter
Description: Inhibition of [3H]dopamine uptake at human DAT expressed in HEK293 cells

Sodium-dependent noradrenaline transporter, sequence (P23975 whole entry): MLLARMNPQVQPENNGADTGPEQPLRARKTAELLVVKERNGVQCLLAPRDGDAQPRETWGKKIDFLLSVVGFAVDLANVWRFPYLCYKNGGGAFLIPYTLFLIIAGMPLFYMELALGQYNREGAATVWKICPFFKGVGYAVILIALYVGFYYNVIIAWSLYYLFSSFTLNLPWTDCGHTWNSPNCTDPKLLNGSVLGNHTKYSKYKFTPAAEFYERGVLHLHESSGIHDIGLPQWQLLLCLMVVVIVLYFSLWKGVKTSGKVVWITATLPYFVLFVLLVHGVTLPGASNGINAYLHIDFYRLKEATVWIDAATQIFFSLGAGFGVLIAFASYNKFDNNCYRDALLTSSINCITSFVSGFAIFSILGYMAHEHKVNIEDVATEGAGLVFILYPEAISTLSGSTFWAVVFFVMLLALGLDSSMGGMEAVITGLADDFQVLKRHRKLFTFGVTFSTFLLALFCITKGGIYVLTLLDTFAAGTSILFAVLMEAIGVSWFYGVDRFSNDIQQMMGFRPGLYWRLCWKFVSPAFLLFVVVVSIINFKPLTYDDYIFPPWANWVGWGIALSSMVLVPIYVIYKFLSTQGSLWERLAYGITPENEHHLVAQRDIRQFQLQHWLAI
T1 sequence (Q01959 whole entry): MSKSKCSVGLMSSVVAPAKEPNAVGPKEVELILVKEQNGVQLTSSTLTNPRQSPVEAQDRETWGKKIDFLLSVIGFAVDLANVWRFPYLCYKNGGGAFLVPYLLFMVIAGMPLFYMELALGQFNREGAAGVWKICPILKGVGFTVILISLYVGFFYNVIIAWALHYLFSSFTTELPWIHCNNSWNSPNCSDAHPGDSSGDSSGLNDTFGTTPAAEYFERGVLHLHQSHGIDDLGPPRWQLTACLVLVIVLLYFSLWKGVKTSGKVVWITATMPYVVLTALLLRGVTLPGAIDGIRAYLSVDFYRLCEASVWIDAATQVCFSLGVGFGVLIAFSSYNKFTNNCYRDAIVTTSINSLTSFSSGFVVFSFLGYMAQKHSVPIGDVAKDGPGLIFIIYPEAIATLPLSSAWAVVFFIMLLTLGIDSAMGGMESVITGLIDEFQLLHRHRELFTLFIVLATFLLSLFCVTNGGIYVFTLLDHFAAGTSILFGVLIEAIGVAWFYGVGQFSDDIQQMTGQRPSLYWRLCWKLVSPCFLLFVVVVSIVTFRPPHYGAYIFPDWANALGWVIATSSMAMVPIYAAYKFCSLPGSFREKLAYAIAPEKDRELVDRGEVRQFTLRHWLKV

Structure (SMILES): CS(=O)(=O)N(Cc1ccccc1C(F)(F)F)[C@H]1CCNC1
- Ki [1]: 86 nM
- Ki [2]: 2890 nM
- Ki [3]: 2890 nM

Structure (SMILES): CC(C)C(=O)N(Cc1ccccc1Oc1ccccc1)[C@H]1CCNC1
- Ki [1]: 34 nM
- microsomal CLint [4]: 10 µL/min/mg
- Ki [2]: 3500 nM
- Ki [3]: 229 nM

Structure (SMILES): CN(C)C(=O)N(Cc1ccccc1-c1ccccc1)[C@H]1CCNC1
- Ki [1]: 53 nM
- Ki [2]: 2970 nM
- Ki [3]: 5010 nM

Structure (SMILES): O=S(=O)(N(Cc1ccccc1-c1ccccc1)[C@H]1CCNC1)C(F)(F)F
- Ki [1]: 30 nM
- Ki [2]: 2080 nM
- Ki [3]: 5280 nM

Structure (SMILES): CC(C)C(=O)N(Cc1ccccc1C(C)C)[C@H]1CCNC1
- Ki [1]: 70 nM
- microsomal CLint [4]: < 7 µL/min/mg
- Ki [2]: 3410 nM
- Ki [3]: 544 nM

Structure (SMILES): CN1CC[C@H](N(Cc2ccccc2-c2ccccc2)S(C)(=O)=O)C1
- Ki [1]: 748 nM
- Ki [3]: > 10000 nM

Structure (SMILES): CCOC(=O)N(Cc1ccccc1-c1ccccc1)[C@@H]1CCNC1
- IC50 (Cytochrome P450 2D6): 350 nM
- Ki [1]: 16 nM
- microsomal CLint [4]: < 7 µL/min/mg
- Ki [2]: 2910 nM
- Ki [3]: 410 nM

Structure (SMILES): CC(C)S(=O)(=O)N(Cc1ccccc1-c1ccccc1)[C@H]1CCNC1
- IC50 (Cytochrome P450 2D6): 350 nM
- Ki [1]: 10 nM
- microsomal CLint [4]: 20 µL/min/mg
- Ki [2]: 2700 nM
- Ki [3]: 4690 nM

Structure (SMILES): CS(=O)(=O)N(Cc1ccccc1-c1ccccc1)[C@@H]1CCNC1
- IC50 (Cytochrome P450 2D6): 5360 nM
- Ki [1]: 29 nM
- microsomal CLint [4]: < 7 µL/min/mg
- Ki [2]: 2390 nM
- Ki [3]: 5350 nM

Structure (SMILES): CCS(=O)(=O)N(Cc1ccccc1-c1ccccc1)[C@H]1CCNC1
- IC50 (Cytochrome P450 2D6): 1890 nM
- Ki [1]: 5 nM
- microsomal CLint [4]: < 7 µL/min/mg
- Ki [2]: 2760 nM
- Ki [3]: 5620 nM

Structure (SMILES): COC(=O)N(Cc1ccccc1-c1ccccc1)[C@H]1CCNC1
- IC50 (Cytochrome P450 2D6): 10600 nM
- Ki [1]: 18 nM
- microsomal CLint [4]: < 7 µL/min/mg
- Ki [2]: 3190 nM
- Ki [3]: 4440 nM

Structure (SMILES): CC(C)OC(=O)N(Cc1ccccc1-c1ccccc1)[C@H]1CCNC1
- Ki [1]: 14 nM
- Ki [2]: 2010 nM
- Ki [3]: 787 nM

Structure (SMILES): CCOC(=O)N(Cc1ccccc1-c1ccccc1)[C@H]1CCNC1
- Ki [5]: 635 nM
- IC50 (Cytochrome P450 3A4): > 3000 nM
- Ki [6]: 1500 nM
- Ki [7]: 1100 nM
- inhibition [8]: > 80%
- Papp A→B [9]: 27 ×10⁻⁶ cm/s
- logD [10]: 1.1
- IC50 (Cytochrome P450 2D6): 1210 nM
- Papp B→A [11]: 28 ×10⁻⁶ cm/s
- pKa [12]: 9.6
- Ki [1]: 8 nM
- inhibition [13]: > 80%
- IC50 (Cytochrome P450 2C9): > 3000 nM
- microsomal CLint [4]: < 7 µL/min/mg
- EC50 [14]: > 10000 nM
- Papp A→B [15]: 22 ×10⁻⁶ cm/s
- CL (Hepatocyte): < 5 µL/min/mg
- Ki [2]: 3030 nM
- EC50 [16]: > 10000 nM
- IC50 (Cytochrome P450 1A2): > 3000 nM
- Activity (Rattus norvegicus): 400%
- Ki [3]: 1110 nM
- EC50 [17]: > 10000 nM
- inhibition [18]: > 80%
- inhibition [19]: > 80%
- Ki [20]: 2.5 nM
- Papp B→A [21]: 44 ×10⁻⁶ cm/s

Structure (SMILES): O=C(N1CCCC1)N(Cc1ccccc1-c1ccccc1)[C@H]1CCNC1
- Ki [1]: 27 nM
- Papp A→B [15]: 2 ×10⁻⁶ cm/s
- Ki [2]: 4190 nM
- efflux ratio [22]: 26
- Papp B→A [21]: 53 ×10⁻⁶ cm/s

Structure (SMILES): CSc1ccccc1CN(C(=O)C(C)C)[C@H]1CCNC1
- Ki [1]: 65 nM
- Ki [2]: 1380 nM
- Ki [3]: 50 nM

Structure (SMILES): CC(C)C(=O)N(Cc1ccccc1-c1ccccc1)[C@H]1CCNC1
- IC50 (Cytochrome P450 3A4): > 3000 nM
- Ki [6]: > 10000 nM
- Ki [23]: 2840 nM
- Ki [7]: 1200 nM
- logD [10]: 0.8
- IC50 (Cytochrome P450 2D6): 1860 nM
- pKa [12]: 9.4
- Ki [1]: 6 nM
- IC50 (Cytochrome P450 2C9): > 3000 nM
- microsomal CLint [4]: < 7 µL/min/mg
- Papp A→B [15]: 11 ×10⁻⁶ cm/s
- Ki [2]: 3740 nM
- IC50 (Cytochrome P450 1A2): > 3000 nM
- Ki [3]: 960 nM
- efflux ratio [22]: 6.1
- Papp B→A [21]: 68 ×10⁻⁶ cm/s

Structure (SMILES): CN(C)S(=O)(=O)N(Cc1ccccc1-c1ccccc1)[C@H]1CCNC1
- IC50 (Cytochrome P450 2D6): 840 nM
- Ki [1]: 8 nM
- microsomal CLint [4]: 16 µL/min/mg
- Papp A→B [15]: 17 ×10⁻⁶ cm/s
- Ki [2]: 2690 nM
- Ki [3]: 3330 nM
- efflux ratio [22]: 4
- Papp B→A [21]: 68 ×10⁻⁶ cm/s

Structure (SMILES): CCCC(=O)N(Cc1ccccc1-c1ccccc1)[C@H]1CCNC1
- Ki [1]: 25 nM
- microsomal CLint [4]: < 7 µL/min/mg
- Ki [2]: 2610 nM
- Ki [3]: 730 nM

Structure (SMILES): CC(C)C(=O)N(Cc1cccc(Cl)c1Cl)[C@H]1CCNC1
- inhibition at 3 µM (CYP2D6): < 10%
- inhibition at 3 µM (CYP2C9): < 40%
- t1/2 (Liver microsomes): > 2 h
- inhibition at 3 µM (CYP1A2): < 40%
- IC50 (Cytochrome P450 2D6): > 3000 nM
- IC50 [24]: 12 nM
- inhibition at 3 µM (CYP3A4): < 40%
- IC50 [25]: 1250 nM
